Experiments:
Test in all cases: Bliss excess, mean over the matrix (fraction); higher = more synergy
[1] = tested on: LU-65 (Non-Small Cell Lung Carcinoma)
Procedure, shortened: (§1)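 Cell lines grown in DMEM/F12 or RPMI with 10% FBS were plated in 1536-well plates and held 24 hours at 37°C, 5% CO2 before 72 hours of exposure to two-drug dose matrices, with DMSO typically at 0.2%. CellTiter-Glo 2.0 luminescence gave viability, which was converted to inhibition. Vehicle wells were set to 0 and blank wells to 1. Combination Emax is the second-highest inhibition in the matrix, and Bliss excess is the observed combination effect minus the expected EA + EB − EA·EB, where EA and EB are the single-agent effects.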

[2] = tested on: EoL-1-cell (Acute Myeloid Leukemia)
Procedure, shortened: as §1

[3] = tested on: MIA-PaCa-2 (Pancreatic Carcinoma)
Procedure, shortened: as §1

[4] = tested on: MLMA (Other Blood Carcinomas)
Procedure, shortened: as §1

[5] = tested on: KYSE-450 (Esophageal Squamous Cell Carcinoma)
Procedure, shortened: as §1

[6] = tested on: HOP-62 (Lung Adenocarcinoma)
Procedure, shortened: as §1

[7] = tested on: NCI-H727 (Other Solid Carcinomas)
Procedure, shortened: as §1

[8] = tested on: Caov-4 (Ovarian Carcinoma)
Procedure, shortened: as §1

[9] = tested on: BT-549 (Breast Carcinoma)
Procedure, shortened: as §1

PWR-1E (Non-Cancerous) = tested on: PWR-1E (Non-Cancerous)
Procedure, shortened: as §1

[10] = tested on: Hs-766T (Pancreatic Carcinoma)
Procedure, shortened: as §1

EW-24 (Ewing's Sarcoma) = tested on: EW-24 (Ewing's Sarcoma)
Procedure, shortened: as §1

[11] = tested on: KMOE-2 (Acute Myeloid Leukemia)
Procedure, shortened: as §1

[12] = tested on: EFM-19 (Breast Carcinoma)
Procedure, shortened: as §1

TGW (Neuroblastoma) = tested on: TGW (Neuroblastoma)
Procedure, shortened: as §1

[13] = tested on: OSC-20 (Oral Cavity Carcinoma)
Procedure, shortened: as §1

[14] = tested on: KARPAS-299 (T-Cell Non-Hodgkin's Lymphoma)
Procedure, shortened: as §1

YH-13 (Glioblastoma) = tested on: YH-13 (Glioblastoma)
Procedure, shortened: as §1

[15] = tested on: NUGC-3 (Gastric Carcinoma)
Procedure, shortened: as §1

[16] = tested on: VA-ES-BJ (Other Solid Carcinomas)
Procedure, shortened: as §1

| SMILES | Bliss excess [1] | Bliss excess [2] | Bliss excess [3] | Bliss excess [4] | Bliss excess [5] | Bliss excess [6] | Bliss excess [7] | Bliss excess [8] | Bliss excess [9] | Bliss excess (PWR-1E (Non-Cancerous)) | Bliss excess [10] | Bliss excess (EW-24 (Ewing's Sarcoma)) | Bliss excess [11] | Bliss excess [12] | Bliss excess (TGW (Neuroblastoma)) | Bliss excess [13] | Bliss excess [14] | Bliss excess (YH-13 (Glioblastoma)) | Bliss excess [15] | Bliss excess [16] |
| --- | --- | --- | --- | --- | --- | --- | --- | --- | --- | --- | --- | --- | --- | --- | --- | --- | --- | --- | --- | --- |
| Cc1c2c(nn1C)CSCc1cc(n(C)n1)CSc1cc(c3ccccc3c1)OCCCc1c(C(=O)O)n(C)c3c-2c(Cl)ccc13 [AZD5991] + Cc1cc2ncnn2cc1Nc1ncc2c(n1)n(C1CCOCC1)c(=O)n2C [AZD7648] (first compound max 1 µM, 7x7, partner max 10 µM) | -0.105 | -0.0018 | -0.0385 | -0.0001 | -0.0321 | -0.0758 | -0.0833 | 0.0024 | -0.0523 | -0.0363 | -0.0936 | -0.035 | -0.0085 | -0.0215 | -0.03 | -0.0567 | -0.0066 | -0.091 | -0.0237 | -0.0239 |
| C[C@@H]1COCCN1c1cc(C2([S@](C)(=N)=O)CC2)nc(-c2ccnc3[nH]ccc23)n1 [AZD6738] + O=C(c1cc(Cc2n[nH]c(=O)c3ccccc23)ccc1F)N1CCN(C(=O)C2CC2)CC1 [Olaparib] (first compound max 10 µM, 7x7, partner max 10 µM) | 0.0026 | 0.0073 | -0.016 | -0.15 | 0.0066 | 0.0092 | -0.0317 | -0.125 | 0.0032 | -0.0632 | -0.0039 | -0.0177 | 0.0413 | 0.0141 | -0.0469 | 0.0171 | -0.0073 | 0.0254 | -0.0296 | -0.0692 |
| NC1(C(=O)N[C@@H](CCO)c2ccc(Cl)cc2)CCN(c2ncnc3[nH]ccc23)CC1 [Capivasertib] + CC(=O)c1c(C)c2cnc(Nc3ccc(N4CCNCC4)cn3)nc2n(C2CCCC2)c1=O [Palbociclib] (first compound max 10 µM, 7x7, partner max 10 µM) | -0.151 | -0.0039 | 0.0767 | -0.0769 | 0.0133 | -0.04 | -0.0139 | 0.0152 | -0.0064 | -0.017 | 0.0056 | 0.0087 | -0.0566 | -0.0107 | -0.0744 | -0.0005 | 0.0205 | 0.0004 | 0.0372 | 0.0144 |
| NC1(C(=O)N[C@@H](CCO)c2ccc(Cl)cc2)CCN(c2ncnc3[nH]ccc23)CC1 [Capivasertib] + CC(C)n1c(=O)n(C)c2cnc3cc(F)c(-c4ccc(OCCCN5CCCCC5)nc4)cc3c21 [AZD1390] (first compound max 10 µM, 7x7, partner max 0.3 µM) | -0.248 | -0.0173 | -0.048 | -0.0216 | -0.0209 | -0.0893 | -0.0922 | -0.0095 | -0.071 | -0.0341 | -0.082 | -0.218 | -0.0666 | -0.0614 | -0.106 | -0.0528 | 0.015 | -0.0372 | -0.0372 | -0.0467 |
| NC1(C(=O)N[C@@H](CCO)c2ccc(Cl)cc2)CCN(c2ncnc3[nH]ccc23)CC1 [Capivasertib] + CCN(CCO)CCCOc1ccc2c(Nc3cc(CC(=O)Nc4cccc(F)c4)[nH]n3)ncnc2c1 [AZD2811] (first compound max 10 µM, 7x7, partner max 1 µM) | -0.215 | -0.0177 | 0.0031 | -0.0388 | 0.0066 | 0.0196 | -0.0058 | 0.026 | -0.0197 | -0.0124 | -0.0559 | -0.0029 | -0.0154 | -0.0084 | -0.0911 | 0.0045 | 0.029 | -0.0317 | -0.0178 | 0.0367 |
| NC1(C(=O)N[C@@H](CCO)c2ccc(Cl)cc2)CCN(c2ncnc3[nH]ccc23)CC1 [Capivasertib] + COc1nnc2ccc(N3CCC(c4ccc(OCCN5CCN(C)C(=O)[C@H]5C)cc4)CC3)nn12 [AZD5153] (first compound max 10 µM, 7x7, partner max 1 µM) | -0.152 | -0.0442 | -0.0594 | -0.0177 | -0.0508 | -0.0633 | 0.0278 | -0.0146 | 0.0602 | 0.0579 | 0.0126 | 0.0532 | -0.0211 | 0.0634 | -0.0364 | 0.0093 | -0.0453 | 0.0553 | 0.0564 | 0.0414 |
| NC1(C(=O)N[C@@H](CCO)c2ccc(Cl)cc2)CCN(c2ncnc3[nH]ccc23)CC1 [Capivasertib] + C[C@@H]1COCCN1C2=NC(=NC(=C2)C3(CC3)[S@](=N)(=O)C)C4=C5C=CNC5=NC=C4 [AZD6738] (first compound max 10 µM, 7x7, partner max 10 µM) | -0.137 | 0.0272 | -0.04 | -0.0719 | -0.0423 | -0.0695 | -0.0734 | -0.0249 | -0.0724 | -0.0534 | -0.02 | -0.0488 | -0.0336 | -0.0072 | -0.112 | -0.0194 | -0.0163 | -0.0771 | -0.0639 | -0.0088 |
| NC1(C(=O)N[C@@H](CCO)c2ccc(Cl)cc2)CCN(c2ncnc3[nH]ccc23)CC1 [Capivasertib] + Cn1cnc2c(F)c(Nc3ccc(Br)cc3Cl)c(C(=O)NOCCO)cc21 [Selumetinib] (first compound max 10 µM, 7x7, partner max 10 µM) | -0.0119 | 0.077 | 0.0259 | 0.0032 | 0.0292 | -0.0367 | -0.0113 | -0.0293 | 0.01 | -0.0246 | -0.0045 | -0.0223 | 0.0417 | -0.034 | -0.104 | 0.0384 | 0.117 | 0.0235 | -0.0007 | 0.0015 |
| COc1cccc2c1C(=O)c1c(O)c3c(c(O)c1C2=O)C[C@@](O)(C(=O)CO)C[C@@H]3O[C@H]1C[C@H](N)[C@H](O)[C@H](C)O1 [Doxorubicin] + Cc1cc2ncnn2cc1Nc1ncc2c(n1)n(C1CCOCC1)c(=O)n2C [AZD7648] (first compound max 1 µM, 7x7, partner max 10 µM) | 0.0418 | 0.155 | 0.0167 | -0.0214 | 0.0487 | 0.0399 | -0.0417 | 0.056 | 0.0233 | 0.12 | -0.012 | 0.0145 | 0.0867 | 0.0055 | 0.0041 | 0.0204 | 0.1 | 0.0443 | 0.0285 | 0.0383 |
| CS(=O)(=O)CCNCc1ccc(-c2ccc3ncnc(Nc4ccc(OCc5cccc(F)c5)c(Cl)c4)c3c2)o1 [Lapatinib] + C[C@@H](Oc1cc(-c2cnn(C3CCNCC3)c2)cnc1N)c1c(Cl)ccc(F)c1Cl [Crizotinib] (first compound max 10 µM, 7x7, partner max 10 µM) | -0.0236 | -0.0547 | -0.0517 | -0.0721 | -0.0486 | -0.0466 | -0.0097 | -0.0451 | -0.0916 | -0.0184 | -0.0535 | -0.0105 | 0.0174 | -0.0109 | -0.0659 | -0.0542 | 0.0532 | -0.0388 | -0.142 | 0.005 |
| CC(=O)c1c(C)c2cnc(Nc3ccc(N4CCNCC4)cn3)nc2n(C2CCCC2)c1=O [Palbociclib] + CC1(C)CCC(CN2CCN(c3ccc(C(=O)NS(=O)(=O)c4ccc(NCC5CCOCC5)c([N+](=O)[O-])c4)c(Oc4cnc5[nH]ccc5c4)c3)CC2)=C(c2ccc(Cl)cc2)C1 [Venetoclax] (first compound max 10 µM, 7x7, partner max 1 µM) | -0.0781 | 0.0515 | -0.0392 | -0.15 | -0.0407 | -0.0132 | 0.0029 | -0.057 | -0.034 | -0.0229 | -0.0544 | 0.0021 | -0.015 | -0.0475 | -0.014 | -0.0545 | -0.0496 | 0.0451 | -0.0178 | 0.0104 |
| CC(=O)c1c(C)c2cnc(Nc3ccc(N4CCNCC4)cn3)nc2n(C2CCCC2)c1=O [Palbociclib] + Cc1c2c(nn1C)CSCc1cc(n(C)n1)CSc1cc(c3ccccc3c1)OCCCc1c(C(=O)O)n(C)c3c-2c(Cl)ccc13 [AZD5991] (first compound max 10 µM, 7x7, partner max 1 µM) | -0.0692 | 0.0132 | 0.0265 | -0.0442 | -0.0623 | -0.0573 | 0.0353 | -0.0133 | 0.0106 | 0.0128 | -0.067 | -0.0178 | -0.0002 | -0.0005 | -0.079 | -0.0337 | 0.0262 | -0.003 | -0.134 | -0.0101 |
| CC(=O)c1c(C)c2cnc(Nc3ccc(N4CCNCC4)cn3)nc2n(C2CCCC2)c1=O [Palbociclib] + Cn1cnc2c(F)c(Nc3ccc(Br)cc3Cl)c(C(=O)NOCCO)cc21 [Selumetinib] (first compound max 10 µM, 7x7, partner max 10 µM) | 0.0042 | 0.112 | 0.0413 | 0.0398 | 0.0539 | -0.0079 | -0.0139 | -0.0247 | -0.0254 | -0.0609 | -0.0221 | -0.0617 | -0.0028 | -0.0313 | 0.0125 | -0.0566 | 0.0661 | 0.0093 | -0.0178 | -0.0518 |
| COc1cccc(OCCCN)c1-c1cc(Nc2cnc(C#N)cn2)n[nH]1 [Prexasertib] + C=CCn1c(=O)c2cnc(Nc3ccc(N4CCN(C)CC4)cc3)nc2n1-c1cccc(C(C)(C)O)n1 [AZD1775] (first compound max 1 µM, partner max 1 µM) | 0.0474 | 0.0565 | 0.143 | 0.0034 | 0.219 | 0.0474 | 0.0061 | 0.007 | 0.0433 | 0.0706 | -0.0579 | -0.1 | 0.0637 | 0.025 | 0.0499 | -0.0076 | -0.0076 | 0.0439 | 0.0979 | 0.12 |
| COc1cccc(OCCCN)c1-c1cc(Nc2cnc(C#N)cn2)n[nH]1 [Prexasertib] + CCc1c2c(nc3ccc(O)cc13)-c1cc3c(c(=O)n1C2)COC(=O)[C@]3(O)CC [SN-38] (first compound max 1 µM, 7x7, partner max 0.3 µM) | -0.0185 | -0.0317 | 0.0334 | -0.0732 | 0.19 | -0.0279 | -0.0425 | -0.0332 | -0.0474 | 0.0309 | -0.0063 | -0.0615 | 0.0296 | 0.155 | -0.0284 | -0.0477 | -0.0223 | 0.0079 | 0.0136 | -0.044 |
